Assay results published in publication PMC6882465, “Towards discovery of new leishmanicidal scaffolds able to inhibit Leishmania GSK-3” (Journal of Enzyme Inhibition and Medicinal Chemistry, 2019).

Target: LdGSK-3 (Leishmania donovani, UniProt A6N857)
Assay: Inhibition of LdGSK-3 with Kinase Glo
Type: biochemical
Conditions: Table S2; 10 µM
Experimental: Assessment of inhibition of LdGSK-3 with Kinase Glo^TM
The reaction was allowed to proceed for 30 min at 30 °C, then it was incubated at room temperature for another 10 min after addition of Kinase Glo reagents (Promega, Ref. V6712). ATP consumption by LdGSK-3 was measured indirectly through end-point luminescence measurement of each well in a Varioskan Flash microplate reader (Thermo).

LdGSK-3, sequence (A6N857 entry or part of it): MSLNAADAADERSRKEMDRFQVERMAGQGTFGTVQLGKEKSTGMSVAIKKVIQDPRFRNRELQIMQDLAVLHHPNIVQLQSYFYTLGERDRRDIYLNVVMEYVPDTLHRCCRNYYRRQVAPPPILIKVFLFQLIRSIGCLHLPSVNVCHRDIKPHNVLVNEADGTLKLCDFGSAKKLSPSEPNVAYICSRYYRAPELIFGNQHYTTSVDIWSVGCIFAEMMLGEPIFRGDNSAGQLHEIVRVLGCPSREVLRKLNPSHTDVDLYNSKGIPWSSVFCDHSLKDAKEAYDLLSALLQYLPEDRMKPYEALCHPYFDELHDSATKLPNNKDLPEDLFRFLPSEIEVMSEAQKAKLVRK

SMILES | % inhibition @ 10µM (initial screening on LdGSK3)
Nc1nc(-c2ccccn2)nc(-n2nc(-c3cccc(C(F)(F)F)c3)cc2N)n1.O=C(O)C(F)(F)F [Compound 26] | 4.75±1.20%
CN(Cc1nc2ccc(C(=O)NCC3CCCCC3)cc2[nH]1)C1CCCc2cccnc21.O=C(O)C(F)(F)F (centres unmarked) [Compound 28] | 1.15±1.75%
Cc1nn(-c2nc(N)nc(-c3ccccn3)n2)c(N)c1-c1ccccc1.O=C(O)C(F)(F)F.O=C(O)C(F)(F)F [Compound 29] | 3.80±1.90%
Cn1nc(C(=O)N2CCc3ccccc32)c2c1CCS(=O)(=O)C2 [Compound 30] | 5.20±1.90%
CCCc1cc(N)nc(-c2cc(CCC)cc(N)n2)c1 [Compound 33] | -0.35±3.85%
c1ccc(Nc2nc(-c3ccccn3)cc(N3CCOCC3)n2)cc1 [Compound 34] | -2.00±2.70%
COCc1cc(Nc2ccccc2)nc(-c2ccccn2)n1 [Compound 35] | 2.90±4.05%
CCN(CC)c1nc(Nc2ccncc2)nc2ccccc12 [Compound 36] | 7.10±1.90%
CCNc1cc(-c2ccccn2)nc(Nc2ccccc2)n1 [Compound 38] | 7.10±1.40%
c1ccc(Nc2nc3ccccc3[nH]2)nc1 [Compound 40] | 13.50±3.10%
CCc1nn(-c2ncc(F)c(NC(C)C)n2)c(N)c1C1CCCCC1 [Compound 41] | 7.05±1.35%
CN(CCOc1ccc(Cl)cc1)Cc1nc(N)nc(N(C)C)n1 [Compound 44] | -2.45±1.00%
O=C(Nc1nc(-c2ccccn2)cs1)N1C[C@H]2C[C@@]2(c2ccccc2)C1 [Compound 47] | 1.55±0.55%
CC(C)(C)c1cc(NC2CC2)nc(-c2ccccn2)n1 [Compound 50] | 4.70±2.30%
Cc1cc(C)cc(NS(=O)(=O)c2cc(-c3cc(C)[nH]n3)ccc2C)c1 [Compound 51] | 5.95±1.25%
Oc1c(-c2n[nH]c(Cc3ccc(Cl)cc3)n2)ncc2cccnc12 [Compound 52] | 5.05±2.35%

SMILES | % inhibition @ 10µM (initial screening on LdGSK3)
O=C(Nc1nc(-c2ccccn2)cs1)C1CCc2ccccc2C1 (centres unmarked) [Compound 54] | 0.10±1.10%
Nc1cc(-c2ccc3ncnc(N4CCOCC4)c3c2)cnc1N [Compound 55] | 0.55±3.00%
COc1ccc(Oc2ccc(C(C)N(C)c3ncc4c(N)nc(N)nc4n3)cc2)cc1 (centres unmarked) [Compound 56] | 0.50±2.95%
O=C(CN(Cc1ccccn1)Cc1ccccn1)NC1Cc2ccccc2C1.O=C(O)C(F)(F)F [Compound 58] | 3.75±2.40%
O=C(Nc1ccc(S(=O)(=O)N2CCCC2)cc1)c1ccc([N+](=O)[O-])s1 [Compound 59] | 16.15±4.10%
CC(C)c1sc(Cl)nc1C(=O)NCCc1nc(C(=O)Nc2ccc3c(c2)OCO3)cs1 [Compound 60] | 0.20±2.80%
COc1cccc(-c2c(C)nn(-c3nc(N)nc(-c4ccccn4)n3)c2N)c1 [Compound 61] | -2.20±1.15%
CC(c1ccc2c(c1)CCCC2)N(C)c1ncc2c(N)nc(N)nc2n1 (centres unmarked) [Compound 62] | 12.10±2.40%
O=C(Nc1ccccc1)Nc1nc(-c2ccccn2)cs1 [Compound 64] | 1.40±0.95%
Cc1ccc(Nc2nc(C3CCCN3Cc3ccn[nH]3)cs2)nc1 (centres unmarked) [Compound 65] | -0.35±2.35%
O=C(CN(Cc1ccccn1)Cc1ccccn1)NCc1csc(-c2cccs2)n1.O=C(O)C(F)(F)F [Compound 68] | 6.80±1.95%
Cc1ccc(-c2csc(NC(=O)C=Cc3ccc(S(=O)(=O)N4CCOCC4)cc3)n2)o1 [Compound 69] | 64.27±2.13%
CCCn1c(NC(=O)CCn2cc(Br)cn2)nc2ccccc21 [Compound 70] | 3.80±1.25%
Cc1ccc2onc(Nc3ccnc(Nc4cccc(S(C)(=O)=O)c4)n3)c2c1.O=C(O)C(F)(F)F [Compound 74] | 10.00±0.75%
CC(c1cc(Cl)cc(Cl)c1)N(C)c1ncc2c(N)nc(N)nc2n1 (centres unmarked) [Compound 75] | 10.05±1.10%
COc1ccc(Cc2nc(-c3ncc4cccnc4c3O)n[nH]2)cc1OC [Compound 77] | 4.60±0.95%

More lines, now with the values ahead:

% inhibition @ 10µM (initial screening on LdGSK3) | SMILES
-13.55±3.90% | CNc1nc(C)nc(N2CCc3cc(C(=O)NCc4ccc(-c5ccn[nH]5)cc4Cl)ccc32)n1.O=C(O)C(F)(F)F [Compound 25]
6.35±5.75% | COCc1cc(Nc2ccc(Cl)cc2)nc(-c2ccccn2)n1 [Compound 27]
8.20±1.70% | Cc1nnc(-c2nc(NCc3ccc(Cl)cc3)c3cccnc3c2O)[nH]1 [Compound 31]
8.80±4.10% | COc1cccc(Nc2cc(C)nc(-c3ccccn3)n2)c1 [Compound 32]
5.90±4.55% | Cc1nc2c(-c3ncn[nH]3)cc(NC(=O)Cc3ccccc3)cn2c1C.O=CO [Compound 37]
9.00±3.05% | COCc1cc(Nc2cccc(Cl)c2)nc(-c2ccccn2)n1 [Compound 39]
5.30±2.55% | COc1ccc(Nc2nc(-c3ccccn3)cc(N3CCCC(O)C3)n2)cc1 (centres unmarked) [Compound 42]
15.30±1.60% | COc1ccc(CNc2cc(C3CC3)nc(-c3nccn3C)n2)cc1.O=C(O)C(F)(F)F [Compound 43]
-2.50±5.50% | CCNc1cc(-c2ccccn2)nc(Nc2ccc(OC)cc2)n1 [Compound 45]
4.95±4.45% | CC(C)COC(=O)Nc1ccc(N2CCC(CNS(=O)(=O)c3ccccc3)CC2)c(F)c1 [Compound 46]
3.25±2.75% | Cc1ccc(Nc2nc(-c3ccccn3)cc(N3CCCC(O)C3)n2)cc1 (centres unmarked) [Compound 48]
5.60±2.35% | Cc1ccccc1CNc1cc(C2CC2)nc(-c2nccn2C)n1.O=C(O)C(F)(F)F [Compound 49]
-1.60±1.50% | O=C(Nc1nc2ccccc2[nH]1)c1ccc2nc[nH]c2c1 [Compound 53]
6.10±3.15% | Cc1cc(-c2cccc3ccccc23)nc2nc(N)nc(N)c12 [Compound 57]
-3.20±0.80% | N#Cc1cccc(CNc2ccc(-c3cnn(CC4CC4)c(=O)c3C#N)cc2)c1 [Compound 63]
0.90±0.90% | Oc1c(-c2n[nH]c(CCc3ccccc3)n2)ncc2cccnc12 [Compound 66]
5.65±3.60% | O=C1CN(C(=O)c2cccc(Nc3ncc(-c4ccc5c(c4)OCO5)cn3)c2)CCN1 [Compound 67]
7.40±4.30% | N#CN1CC[C@@H](NC(=O)Nc2ccccc2Oc2ccccc2)C1 [Compound 72]
-3.05±0.35% | Cc1cc(N2CCc3ccccc3C2)nc(Nc2ccc(S(=O)(=O)N3CCOCC3)cc2)n1.Cl [Compound 73]
5.70±0.50% | O=C(Nc1n[nH]c(-c2ccccn2)n1)C1CC1c1ccccc1 (centres unmarked) [Compound 76]

Same assay, conditions: assayed at 10 µM

SMILES | percentage of inhibition of LdGSK-3
Cc1ccc(-c2csc(NC(=O)C=Cc3ccc(S(=O)(=O)N4CCOCC4)cc3)n2)o1 [Compound 69] | higher than 50%
